Measurements taken from ChEMBL document CHEMBL1955839, “Synthesis and structure-activity relationship of 4-amino-2-phenylpyrimidine derivatives as a series of novel GPR119 agonists” (Bioorg Med Chem, 2012).
pIC50: −log10 of the molar value.

Assays:
[1] = biological target: T1, Glucose-dependent insulinotropic receptor (Homo sapiens) (UniProt Q8TDV5); test: Agonist activity at human GPR119 expressed in HEK293 cells co-transfected with pCRE-Luc assessed as induction in cAMP level at 10 uM after 6 hrs by luciferase reporter gene assay relative to 10 uM of 2-{[2-(4-Bromophenyl)-6-methylpyrimidin-4-yl]amino}ethanol; assay type: functional, cell-based
T1 sequence (whole entry): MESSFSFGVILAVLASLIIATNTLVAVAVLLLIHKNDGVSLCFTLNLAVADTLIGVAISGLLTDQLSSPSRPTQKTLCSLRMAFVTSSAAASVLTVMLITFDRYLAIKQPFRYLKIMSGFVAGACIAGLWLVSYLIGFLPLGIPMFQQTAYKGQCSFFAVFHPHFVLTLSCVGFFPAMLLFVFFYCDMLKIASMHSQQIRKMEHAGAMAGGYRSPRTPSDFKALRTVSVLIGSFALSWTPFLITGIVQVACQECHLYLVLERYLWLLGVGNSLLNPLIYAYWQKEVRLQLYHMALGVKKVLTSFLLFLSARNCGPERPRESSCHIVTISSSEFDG

[2] = biological target: T1, Glucose-dependent insulinotropic receptor (Homo sapiens); test: Agonist activity at human GPR119 expressed in HEK293 cells co-transfected with pCRE-Luc assessed as induction in cAMP level after 6 hrs by luciferase reporter gene assay relative to 10 uM of 2-{[2-(4-Bromophenyl)-6-methylpyrimidin-4-yl]amino}ethanol; assay type: functional, cell-based
Cytochrome P450 1A2 = biological target: T2, Cytochrome P450 1A2 (Homo sapiens, UniProt P05177); test: Inhibition of CYP1A2; assay type: ADME
T2 sequence (P05177 whole entry): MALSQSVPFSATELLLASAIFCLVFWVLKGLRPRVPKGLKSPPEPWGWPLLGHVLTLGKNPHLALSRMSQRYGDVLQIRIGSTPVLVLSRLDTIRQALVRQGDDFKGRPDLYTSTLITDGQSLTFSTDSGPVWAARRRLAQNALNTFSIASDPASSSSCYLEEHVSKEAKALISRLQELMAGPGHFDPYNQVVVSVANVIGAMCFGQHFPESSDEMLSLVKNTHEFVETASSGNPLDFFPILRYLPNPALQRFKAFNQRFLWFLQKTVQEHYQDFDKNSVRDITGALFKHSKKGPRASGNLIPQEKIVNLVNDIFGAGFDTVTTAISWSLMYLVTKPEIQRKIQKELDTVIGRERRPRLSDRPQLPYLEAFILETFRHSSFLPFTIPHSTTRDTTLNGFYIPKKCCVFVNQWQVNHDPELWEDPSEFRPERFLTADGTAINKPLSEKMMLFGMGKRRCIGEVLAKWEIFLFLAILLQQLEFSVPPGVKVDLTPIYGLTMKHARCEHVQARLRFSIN

Mus musculus [3] = test: Antihyperglycemic activity in ICR mouse assessed as blood glucose lowering ratio at 10 mg/kg, po administered 10 mins prior glucose challenge measured after 30 mins by oral glucose tolerance test; assay type: functional
[4] = Volume of distribution at steady state in rat at 1 mg/kg, iv; assay type: ADME, organism-based; set-up: dose 1 mg/kg, route intravenous; details: in vivo, read-out: Vdss
[5] = Oral bioavailability in rat at 3 mg/kg; assay type: ADME, organism-based; details: in vivo
[6] = Total clearance in rat at 1 mg/kg, iv; assay type: ADME, organism-based; set-up: dose 1 mg/kg, route intravenous; details: in vivo
[7] = Half life in rat at 1 mg/kg, iv; assay type: ADME, organism-based; set-up: dose 1 mg/kg, route intravenous; details: in vivo
[8] = Tmax in rat at 3 mg/kg, po; assay type: ADME, organism-based; set-up: dose 3 mg/kg, route oral; details: in vivo
Mus musculus [9] = test: Antihyperglycemic activity in ICR mouse assessed as blood glucose lowering ratio at 30 mg/kg, po administered 10 mins prior glucose challenge measured after 30 mins by oral glucose tolerance test; assay type: functional

SMILES	Intrinsic activity [1] [%]	EC [2] [µM]	pIC50 (Cytochrome P450 1A2)	Activity (Mus musculus [3]) [%]	other results
Cc1cc(NCCO)nc(-c2ccc(Cl)cc2)n1	48	12			
Cc1cc(NCC(C)C)nc(-c2ccc(Br)cc2)n1	322	0.91	> 7.04	24	
CCc1cc(NCCO)nc(-c2ccc(Br)cc2)n1	146	5.9			
Cc1cc(NC(C)CO)nc(-c2ccc(Br)cc2)n1 (stereo unspecified)	82	13			
Cc1cc(NCC(C)O)nc(-c2ccc(Br)cc2)n1 (stereo unspecified)	209	3.6			
Cc1cc(NCCO)nc(-c2ccc(I)cc2)n1	66	19			
OCCNc1cc(C(F)F)nc(-c2ccc(Br)cc2)n1	195	8.2			

Continued, in another order:

Intrinsic activity [1] [%]	EC [2] [µM]	pIC50 (Cytochrome P450 1A2)	SMILES	Activity (Mus musculus [3]) [%]	other results
772	0.73	> 7.04	Cc1cc(NCCc2cccnc2)nc(-c2ccc(Br)cc2)n1	17	
		6.01	Cc1cc(NCCc2ccc[n+]([O-])c2)nc(-c2ccc(Br)cc2)n1	38	Vd [4]: 2 L/kg; bioavailability [5]: 56%; clearance [6]: 20.1 mL/min/kg; half-life [7]: 72 min; Tmax [8]: 15 min
209	1.8	> 7.04	COCCNc1cc(C)nc(-c2ccc(Br)cc2)n1	13	
294	1.3	> 7.34	Cc1cc(NCc2cccnc2)nc(-c2ccc(Br)cc2)n1		
		6.18	Cc1cc(NCCO)nc(-c2ccc(Br)cc2)n1		Activity (Mus musculus [9]): 17%
